Key:
HL-60 = test: Cytotoxicity against human HL60 cells after 48 hrs by MTT assay; assay type: functional, cell-based; conditions: HL-60, 48 h
H22 = test: Antimetastatic activity in mouse H22 cells xenografted in mouse assessed as reduction of metastasized nodes at 50 mg/kg, po administered 6 days per week for 2 weeks measured after 1 day last post dose; assay type: functional; design: scale not given: the % may be the effect or the level left
Aminopeptidase N = molecular target: T1, Aminopeptidase N (Sus scrofa, UniProt P15145); test: Inhibition of pig kidney microsomes aminopeptidase N preincubated for 30 mins
T1 sequence (P15145 whole entry): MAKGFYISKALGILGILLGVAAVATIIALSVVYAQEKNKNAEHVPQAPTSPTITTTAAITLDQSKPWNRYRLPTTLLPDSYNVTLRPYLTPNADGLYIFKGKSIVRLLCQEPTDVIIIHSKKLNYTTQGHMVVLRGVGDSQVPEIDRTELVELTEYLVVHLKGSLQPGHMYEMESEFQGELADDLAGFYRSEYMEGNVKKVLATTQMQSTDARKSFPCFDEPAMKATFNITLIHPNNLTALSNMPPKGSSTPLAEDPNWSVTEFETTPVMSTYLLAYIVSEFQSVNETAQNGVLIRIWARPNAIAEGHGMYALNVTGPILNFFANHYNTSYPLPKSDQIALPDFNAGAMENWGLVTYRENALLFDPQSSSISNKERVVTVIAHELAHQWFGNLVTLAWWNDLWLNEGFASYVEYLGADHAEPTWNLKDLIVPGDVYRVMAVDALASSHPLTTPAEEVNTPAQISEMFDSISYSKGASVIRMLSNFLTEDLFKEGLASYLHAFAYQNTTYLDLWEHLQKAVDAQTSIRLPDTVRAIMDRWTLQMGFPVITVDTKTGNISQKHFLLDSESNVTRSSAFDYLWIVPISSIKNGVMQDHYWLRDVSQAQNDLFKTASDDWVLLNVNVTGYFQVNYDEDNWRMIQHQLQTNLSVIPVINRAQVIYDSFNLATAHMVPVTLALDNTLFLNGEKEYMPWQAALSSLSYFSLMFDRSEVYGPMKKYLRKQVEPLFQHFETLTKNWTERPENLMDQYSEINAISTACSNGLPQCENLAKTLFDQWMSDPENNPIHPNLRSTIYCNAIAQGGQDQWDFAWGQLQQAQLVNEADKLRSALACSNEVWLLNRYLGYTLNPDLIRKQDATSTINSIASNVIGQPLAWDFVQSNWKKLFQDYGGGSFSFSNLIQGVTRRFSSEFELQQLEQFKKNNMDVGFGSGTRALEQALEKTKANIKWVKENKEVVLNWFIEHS

SMILES	IC50 (HL-60) [µM]	Activity (H22) [%]	IC50 (Aminopeptidase N) [µM]
COc1cc(C(=O)N[C@H]2CCC(=O)N(CC(=O)NO)C2=O)cc(OC)c1OC	136	81.56	–
COC(=O)[C@H](CCCCNC(=O)OCc1ccccc1)NC(=O)CN1C(=O)CC[C@H](NC(=O)c2cc(OC)c(OC)c(OC)c2)C1=O	–	–	38.1
COC(=O)[C@H](CCCNC(=N)N[N+](=O)[O-])NC(=O)CN1C(=O)CC[C@H](NC(=O)c2cc(OC)c(OC)c(OC)c2)C1=O	86	–	42
O=C(CN1C(=O)CC[C@H](NC(=O)c2cc(O)c(O)c(O)c2)C1=O)N[C@@H](Cc1ccccc1)C(=O)O	–	–	10.3
COC(=O)[C@@H](CS)NC(=O)CN1C(=O)CC[C@H](NC(=O)c2cc(OC)c(OC)c(OC)c2)C1=O	–	–	50.3
O=C(CN1C(=O)CC[C@H](NC(=O)c2cc(O)c(O)c(O)c2)C1=O)NO	–	–	4.3
CC(C)C[C@H](NC(=O)CN1C(=O)CC[C@H](NC(=O)c2cc(O)c(O)c(O)c2)C1=O)C(=O)O	–	–	55.4
COC(=O)[C@@H](CCl)NC(=O)CN1C(=O)CC[C@H](NC(=O)c2cc(OC)c(OC)c(OC)c2)C1=O	–	–	50
O=C(O)CN1C(=O)CC[C@H](NC(=O)c2cc(O)c(O)c(O)c2)C1=O	–	–	47.3
O=C(O)CNC(=O)CN1C(=O)CC[C@H](NC(=O)c2cc(O)c(O)c(O)c2)C1=O	–	–	63.2
COC(=O)CC(NC(=O)CN1C(=O)CC[C@H](NC(=O)c2cc(OC)c(OC)c(OC)c2)C1=O)C(=O)OC (single isomer, unassigned)	–	–	21.7
CC(C)C[C@H](NC(=O)[C@@H](O)[C@H](N)Cc1ccccc1)C(=O)O [UBENIMEX]	245	60.25	–

— ChEMBL document CHEMBL1154789, “Novel cyclic-imide peptidomimetics as aminopeptidase N inhibitors. Design, chemistry and activity evaluation. Part I” (Eur J Med Chem, 2009)
